Data taken from patent US7235379B2, “Method and medium for the detection/identification of microorgranisms with esterase activity” (Bio Merieux, priority 2000, dated 2007).
“And” between values parts separate entries of the source, which are not always exact repeats. Equal values may be shown once. Read-outs that look alike come from different tables or passages of the source.

Columns and labels:
Type in all cases: cell-based
Escherichia coli 002 = test: Ex.4 colony coloration, 5-bromo-3-indolyl nonanoate, DMSO/Tween 20, MacConkey; parameters: key: —: absence of colour or intensity
Salmonella arizonae 018 = test: as above; on intensity of coloration: key: 0: no activity; 0.1: trace of coloration; 0.5: very pale coloration; 1: distinct coloration of low intensity; 2: clear coloration of medium intensity; 3: intense coloration; 4: very intense coloration
Salmonella typhi 118 = tested on: Salmonella typhi 118; on intensity of coloration: key: 0: no activity; 0.1: trace of coloration; 0.5: very pale coloration; 1: distinct coloration of low intensity; 2: clear coloration of medium intensity; 3: intense coloration; 4: very intense coloration
Salmonella spp. 017 = test: Ex.4 colony coloration, 5-bromo-3-indolyl nonanoate, DMSO/Tween 20, MacConkey; parameters: key to color: —: absence of colour or intensity
Description: The esterase substrate tested is 5-bromo-3-indolyl nonanoate. A 40 g/l stock solution of substrate is prepared in a mixture of 40% dimethyl sulfoxide and 60% Tween 20. A sufficient volume is added to a supercooled MacConkey medium (without neutral red) to give a substrate concentration of 500 mg/l.
This medium is then separated into eight portions. […] Microorganisms originating from the Applicant's collection were inoculated onto this medium from a 0.5 McFarland suspension by isolation in three quadrants. The dishes were incubated at 37° C. for 48 hours. The colonies formed were examined visually after 24 and 48 hours of incubation. The coloration of these colonies and the intensity of this coloration were noted.

[1] = tested on: bacterial species exhibiting esterase activity; test: Ex.4 overall conclusion, colony coloration; conditions: experimental conditions of Example 4
Description: This medium is then separated into eight portions.

Hafnia alvei 025 = test: Ex.4 colony coloration, 5-bromo-3-indolyl nonanoate, DMSO/Tween 20, MacConkey; parameters: key: —: absence of colour or intensity
[2] = tested on: Salmonella enteritidis 006; test: as above

polyethylene glycol mono-p-isooctylphenyl ether [Triton X100]
color (Escherichia coli 002; 8 ml/l Triton X100, 24 h): — | color (Escherichia coli 002; 8 ml/l Triton X100, 48 h): — | color (Escherichia coli 002; 16 ml/l Triton X100, 24 h): — | color (Escherichia coli 002; 16 ml/l Triton X100, 48 h): — | color (Escherichia coli 002; 32 ml/l Triton X100, 24 h): — | color (Escherichia coli 002; 32 ml/l Triton X100, 48 h): — | color (Salmonella arizonae 018; 8 ml/l Triton X100, 24 h): gray | intensity of coloration (Salmonella arizonae 018; 8 ml/l Triton X100, 24 h): 2 | color (Salmonella arizonae 018; 8 ml/l Triton X100, 48 h): gray | intensity of coloration (Salmonella arizonae 018; 8 ml/l Triton X100, 48 h): 2.5 | color (Salmonella arizonae 018; 16 ml/l Triton X100, 24 h): gray | intensity of coloration (Salmonella arizonae 018; 16 ml/l Triton X100, 24 h): 2 | color (Salmonella arizonae 018; 16 ml/l Triton X100, 48 h): gray | intensity of coloration (Salmonella arizonae 018; 16 ml/l Triton X100, 48 h): 2.5 | color (Salmonella arizonae 018; 32 ml/l Triton X100, 24 h): gray | intensity of coloration (Salmonella arizonae 018; 32 ml/l Triton X100, 24 h): 1 | color (Salmonella arizonae 018; 32 ml/l Triton X100, 48 h): gray | intensity of coloration (Salmonella arizonae 018; 32 ml/l Triton X100, 48 h): 2 | color (Salmonella typhi 118; 8 ml/l Triton X100, 24 h): gray | intensity of coloration (Salmonella typhi 118; 8 ml/l Triton X100, 24 h): 1 | color (Salmonella typhi 118; 8 ml/l Triton X100, 48 h): gray | intensity of coloration (Salmonella typhi 118; 8 ml/l Triton X100, 48 h): 1 | color (Salmonella typhi 118; 16 ml/l Triton X100, 24 h): gray | intensity of coloration (Salmonella typhi 118; 16 ml/l Triton X100, 24 h): 1 | color (Salmonella typhi 118; 16 ml/l Triton X100, 48 h): gray | intensity of coloration (Salmonella typhi 118; 16 ml/l Triton X100, 48 h): 1 | color (Salmonella typhi 118; 32 ml/l Triton X100, 24 h): gray | intensity of coloration (Salmonella typhi 118; 32 ml/l Triton X100, 24 h): 0.5 | color (Salmonella typhi 118; 32 ml/l Triton X100, 48 h): gray | intensity of coloration (Salmonella typhi 118; 32 ml/l Triton X100, 48 h): 0.5 | color (Salmonella spp. 017; 8 ml/l Triton X100, 24 h): gray | intensity of coloration (Salmonella spp. 017; 8 ml/l Triton X100, 24 h): 1 | color (Salmonella spp. 017; 8 ml/l Triton X100, 48 h): gray | intensity of coloration (Salmonella spp. 017; 8 ml/l Triton X100, 48 h): 3 | color (Salmonella spp. 017; 16 ml/l Triton X100, 24 h): gray | intensity of coloration (Salmonella spp. 017; 16 ml/l Triton X100, 24 h): 0.5 | color (Salmonella spp. 017; 16 ml/l Triton X100, 48 h): gray | intensity of coloration (Salmonella spp. 017; 16 ml/l Triton X100, 48 h): 2 | color (Salmonella spp. 017; 32 ml/l Triton X100, 24 h): — | color (Salmonella spp. 017; 32 ml/l Triton X100, 48 h): gray | intensity of coloration (Salmonella spp. 017; 32 ml/l Triton X100, 48 h): 0.5 | effect on the esterase activity compared with Tergitol 4 [1]: not as pronounced as that observed with Tergitol 4 | color (Hafnia alvei 025; 8 ml/l Triton X100, 24 h): — | color (Hafnia alvei 025; 8 ml/l Triton X100, 48 h): — | color (Hafnia alvei 025; 16 ml/l Triton X100, 24 h): — | color (Hafnia alvei 025; 16 ml/l Triton X100, 48 h): — | color (Hafnia alvei 025; 32 ml/l Triton X100, 24 h): — | color (Hafnia alvei 025; 32 ml/l Triton X100, 48 h): — | color ([2]; 8 ml/l Triton X100, 24 h): gray | intensity of coloration ([2]; 8 ml/l Triton X100, 24 h): 2 | color ([2]; 8 ml/l Triton X100, 48 h): gray | intensity of coloration ([2]; 8 ml/l Triton X100, 48 h): 2.5 | color ([2]; 16 ml/l Triton X100, 24 h): gray | intensity of coloration ([2]; 16 ml/l Triton X100, 24 h): 2 | color ([2]; 16 ml/l Triton X100, 48 h): gray | intensity of coloration ([2]; 16 ml/l Triton X100, 48 h): 2.5 | color ([2]; 32 ml/l Triton X100, 24 h): gray | intensity of coloration ([2]; 32 ml/l Triton X100, 24 h): 1 | color ([2]; 32 ml/l Triton X100, 48 h): gray | intensity of coloration ([2]; 32 ml/l Triton X100, 48 h): 1.5

CCCCC(CC)COS(=O)(=O)[O-].[Na+] (centres unmarked) [Tergitol 8]
color (Escherichia coli 002; 2 ml/l Tergitol 8, 24 h): — | color (Escherichia coli 002; 2 ml/l Tergitol 8, 48 h): — | color (Escherichia coli 002; 4 ml/l Tergitol 8, 24 h): — | color (Escherichia coli 002; 4 ml/l Tergitol 8, 48 h): — | color (Escherichia coli 002; 8 ml/l Tergitol 8, 24 h): — | color (Escherichia coli 002; 8 ml/l Tergitol 8, 48 h): — | color (Salmonella arizonae 018; 2 ml/l Tergitol 8, 24 h): gray | intensity of coloration (Salmonella arizonae 018; 2 ml/l Tergitol 8, 24 h): 2 | color (Salmonella arizonae 018; 2 ml/l Tergitol 8, 48 h): gray | intensity of coloration (Salmonella arizonae 018; 2 ml/l Tergitol 8, 48 h): 4 | color (Salmonella arizonae 018; 4 ml/l Tergitol 8, 24 h): gray | intensity of coloration (Salmonella arizonae 018; 4 ml/l Tergitol 8, 24 h): 2 | color (Salmonella arizonae 018; 4 ml/l Tergitol 8, 48 h): gray | intensity of coloration (Salmonella arizonae 018; 4 ml/l Tergitol 8, 48 h): 2.5 | color (Salmonella arizonae 018; 8 ml/l Tergitol 8, 24 h): gray | intensity of coloration (Salmonella arizonae 018; 8 ml/l Tergitol 8, 24 h): 2 | color (Salmonella arizonae 018; 8 ml/l Tergitol 8, 48 h): gray | intensity of coloration (Salmonella arizonae 018; 8 ml/l Tergitol 8, 48 h): 2.5 | color (Salmonella typhi 118): gray | intensity of coloration (Salmonella typhi 118): 1 and 1.5 and 2 | color (Salmonella spp. 017; 2 ml/l Tergitol 8, 24 h): gray | intensity of coloration (Salmonella spp. 017; 2 ml/l Tergitol 8, 24 h): 0.5 | color (Salmonella spp. 017; 2 ml/l Tergitol 8, 48 h): gray | intensity of coloration (Salmonella spp. 017; 2 ml/l Tergitol 8, 48 h): 1.5 | color (Salmonella spp. 017; 4 ml/l Tergitol 8, 24 h): gray | intensity of coloration (Salmonella spp. 017; 4 ml/l Tergitol 8, 24 h): 0.3 | color (Salmonella spp. 017; 4 ml/l Tergitol 8, 48 h): gray | intensity of coloration (Salmonella spp. 017; 4 ml/l Tergitol 8, 48 h): 1 | color (Salmonella spp. 017; 8 ml/l Tergitol 8, 24 h): — | color (Salmonella spp. 017; 8 ml/l Tergitol 8, 48 h): gray | intensity of coloration (Salmonella spp. 017; 8 ml/l Tergitol 8, 48 h): 0.5 | effect on the esterase activity compared with Tergitol 4 [1]: not as pronounced as that observed with Tergitol 4 | color (Hafnia alvei 025; 2 ml/l Tergitol 8, 24 h): — | color (Hafnia alvei 025; 2 ml/l Tergitol 8, 48 h): — | color (Hafnia alvei 025; 4 ml/l Tergitol 8, 24 h): — | color (Hafnia alvei 025; 4 ml/l Tergitol 8, 48 h): — | color (Hafnia alvei 025; 8 ml/l Tergitol 8, 24 h): — | color (Hafnia alvei 025; 8 ml/l Tergitol 8, 48 h): — | color ([2]; 2 ml/l Tergitol 8, 24 h): gray | intensity of coloration ([2]; 2 ml/l Tergitol 8, 24 h): 3 | color ([2]; 2 ml/l Tergitol 8, 48 h): gray | intensity of coloration ([2]; 2 ml/l Tergitol 8, 48 h): 4 | color ([2]; 4 ml/l Tergitol 8, 24 h): gray | intensity of coloration ([2]; 4 ml/l Tergitol 8, 24 h): 2.5 | color ([2]; 4 ml/l Tergitol 8, 48 h): gray | intensity of coloration ([2]; 4 ml/l Tergitol 8, 48 h): 3 | color ([2]; 8 ml/l Tergitol 8, 24 h): gray | intensity of coloration ([2]; 8 ml/l Tergitol 8, 24 h): 3 | color ([2]; 8 ml/l Tergitol 8, 48 h): gray | intensity of coloration ([2]; 8 ml/l Tergitol 8, 48 h): 3.5
